Results published in PMC4876372 (Scientific Reports, 2016).

Columns and labels:
[1] = target: T1, porcine tubulin (Sus scrofa, UniProt P02550+P02554); test: In vitro tubulin polymerization assay; type: biochemical; conditions: even at 300 μM
T1 construct: purchased Cytoskeleton
Experimental: In vitro tubulin polymerization assay was performed using a tubulin polymerization assay kit (Cytoskeleton) according to the manufacturer’s instructions. Briefly, lyophilized porcine tubulin was solubilized to a final concentration of 2 mg/mL in reaction buffer containing 80 mM piperazine-N,N′-bis(2-ethanesulfonic acid) (PIPES; pH 6.9), 2 mM MgCl2, 0.5 mM ethylene glycol tetraacetic acid (EGTA), 1 mM guanosine-5′-triphosphate (GTP), 10 μM fluorescent reporter, and 20% glycerol, and kept at 4 °C. Compounds (100 × DMSO stock solutions) were added to prewarmed half-area 96-well black plates. Cold tubulin solution was added to the wells. The plate contents were mixed by shaking, and fluorescence (Ex 350 nm, Em 435 nm) was read every minute for 1 h using a fluorescence microplate reader (Molecular Devices).

[2] = tested on: 8-oxo-dG levels in DNA of HeLa cells; test: 8-oxo-dG immunofluorescence; type: cell-based, human; conditions: 20 h, NPD compounds 100 μM, TH287 3 and 10 μM
Experimental: Human cancer cell lines HeLa (cervical cancer), MIA PaCa-2 (pancreatic cancer), A431 (epidermoid carcinoma), and human embryonic kidney derived cell line HEK293T were cultured in Dulbecco’s Modified Eagle’s Medium (DMEM; Invitrogen) containing 10% fetal bovine serum (FBS), penicillin G (50 units/mL) and streptomycin (50 µg/mL). Human cancer cell lines Panc-1 (pancreatic cancer) and Jurkat (T cell lymphoma) were cultured in RPMI (Gibco) containing 10% FBS, penicillin G (50 units/mL) and streptomycin (50 µg/mL). Human osteosarcoma cell line MG-63, mouse embryonic fibroblast NIH3T3 cells and its transformant NIH3T3/KRAS cells1 were cultured in DMEM (Sigma-Aldrich) containing 10% calf serum, glutamine (0.3 g/L), penicillin G (50 units/mL), and streptomycin (50 µg/mL). All cell lines were incubated at 37 °C in a humidified atmosphere containing 5% CO2. […]
The HeLa cells were seeded on glass coverslips in 12-well plates, cultured overnight, and treated with test compounds for the indicated time. For 8-oxo-dG, cells were fixed sequentially in 3.7% formalin for 10 min and methanol at -20 °C for 10 min, and then permeabilized in 0.5% Triton X-100 in PBS at room temperature for 5 min. After blocking with 0.5% BSA in PBS at room temperature for 30 min, cells were incubated sequentially with a primary antibody against 8-oxo-dG (5 µg/mL, MOG-020; Japan Institute for the Control of Aging) and with Alexa Fluor 488-conjugated secondary antibody (1:400, Life Technologies) under the same conditions. After a quick rinse in PBS, DNA was counterstained with 0.1 µg/mL 4′,6-diamidino-2-phenylindole (DAPI) in PBS at room temperature for 10 min. Images were analyzed with a fluorescence microscope (BX60, Olympus).

[3] = tested on: PANC-1, MIA PaCa-2, A431, Jurkat, MG-63, NIH3T3 and NIH3T3/KRAS cells; type: cell-based; conditions: 72 or 96 h, WST-8
Experimental: Human cancer cell lines HeLa (cervical cancer), MIA PaCa-2 (pancreatic cancer), A431 (epidermoid carcinoma), and human embryonic kidney derived cell line HEK293T were cultured in Dulbecco’s Modified Eagle’s Medium (DMEM; Invitrogen) containing 10% fetal bovine serum (FBS), penicillin G (50 units/mL) and streptomycin (50 µg/mL). Human cancer cell lines Panc-1 (pancreatic cancer) and Jurkat (T cell lymphoma) were cultured in RPMI (Gibco) containing 10% FBS, penicillin G (50 units/mL) and streptomycin (50 µg/mL). Human osteosarcoma cell line MG-63, mouse embryonic fibroblast NIH3T3 cells and its transformant NIH3T3/KRAS cells1 were cultured in DMEM (Sigma-Aldrich) containing 10% calf serum, glutamine (0.3 g/L), penicillin G (50 units/mL), and streptomycin (50 µg/mL). All cell lines were incubated at 37 °C in a humidified atmosphere containing 5% CO2.
The cells were seeded in 96-well plates, cultured overnight, and treated with test compounds for the indicated time. Subsequently, cell viability was measured by the WST-8 assay, using Cell Count Reagent SF (Nacalai Tesque) according to the manufacturer ’s instructions, with the measurement of absorbance set at 450 nm on the ARVO SX 1420 Multilabel Counter (Wallac). […]

[4] = target: T2, His-tagged human recombinant ITPA protein (Homo sapiens, UniProt Q9BY32); test: ITPA enzyme assay; type: biochemical; conditions: at 100 μM
T2 construct: His; purchased ProSpec
Experimental: Likewise, the enzymatic activities of ITPA and DCTPP1 were measured using a PPiLight Inorganic Pyrophosphate Assay kit. For the ITPA enzyme assay, we used ITPA assay buffer (100 mM Tris-acetate, 50 mM Mg(OAc)2, 0.005% Tween-20, and 2 mM DTT, pH 7.5), His-tagged human recombinant ITPA protein (5 nM; ProSpec), and ITP (25 μM). For the DCTPP1 enzyme assay, we used DCTPP1 assay buffer (100 mM Tris-acetate, 100 mM NaCl, 10 mM Mg(OAc)2, 0.005% Tween-20, and 2 mM DTT, pH 7.5), His-tagged human recombinant DCTPP1 protein (50 nM; ATGen), and deoxycytidine triphosphate (dCTP; 50 μM).
To exclude false positive compounds that inhibit PPi detection, the effects of test compounds on 10 μM Na4P2O7-induced luciferase activity were examined.

[5] = target: T3, MTH1 in intact HeLa cells (Homo sapiens, UniProt P36639); test: Target engagement assay (CETSA); type: cell-based; conditions: 300 μM, 1 h
T3 construct: endogenous in cells; host or cells: HeLa
Experimental: To analyze the interaction between small-molecule ligands and their target proteins in intact cells, a cellular thermal shift assay (CETSA) was performed as described previously with minor modifications. […] After treatment, cells were collected with trypsin and resuspended in Tris-buffered saline (TBS). The cell suspension was aliquoted into four polymerase chain reaction (PCR) tubes and heated at 45, 50, 55, or 60 °C for 5 min. Subsequently, cells were lysed by three repeated freeze-thaw cycles using liquid nitrogen. Precipitated proteins were separated from the soluble fraction by centrifugation at 17,000 × g for 20 min. Soluble proteins collected in the supernatant were subjected to sodium dodecyl sulfate polyacrylamide gel electrophoresis (SDS-PAGE) and transferred to a polyvinylidene difluoride (PVDF) membrane (Millipore) for western blot analysis. […] Santa Cruz Biotechnology) and a horseradish peroxidase–labeled secondary antibody (Vector Laboratories) in sequence. They were then visualized with Fusion Solo S (Vilber Lourmat) using a Super Signal West Pico Chemiluminescence Substrate (Pierce). After detection of MTH1 by western blot, proteins on the membrane were visualized by staining with Coomassie brilliant blue (CBB).

T1 sequence (P02550 whole entry): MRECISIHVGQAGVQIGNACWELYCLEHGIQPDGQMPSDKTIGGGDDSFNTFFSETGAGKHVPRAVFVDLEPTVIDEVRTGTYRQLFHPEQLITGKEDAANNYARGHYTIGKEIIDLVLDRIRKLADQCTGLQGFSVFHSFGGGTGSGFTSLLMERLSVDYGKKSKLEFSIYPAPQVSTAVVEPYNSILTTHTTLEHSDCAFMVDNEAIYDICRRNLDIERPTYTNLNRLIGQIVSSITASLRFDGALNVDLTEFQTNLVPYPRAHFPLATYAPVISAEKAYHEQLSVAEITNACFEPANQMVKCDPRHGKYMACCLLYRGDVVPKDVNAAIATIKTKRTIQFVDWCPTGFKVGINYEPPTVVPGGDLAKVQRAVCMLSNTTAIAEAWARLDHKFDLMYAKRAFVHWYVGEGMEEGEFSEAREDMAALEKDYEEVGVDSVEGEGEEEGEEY
T1 sequence (P02554 whole entry): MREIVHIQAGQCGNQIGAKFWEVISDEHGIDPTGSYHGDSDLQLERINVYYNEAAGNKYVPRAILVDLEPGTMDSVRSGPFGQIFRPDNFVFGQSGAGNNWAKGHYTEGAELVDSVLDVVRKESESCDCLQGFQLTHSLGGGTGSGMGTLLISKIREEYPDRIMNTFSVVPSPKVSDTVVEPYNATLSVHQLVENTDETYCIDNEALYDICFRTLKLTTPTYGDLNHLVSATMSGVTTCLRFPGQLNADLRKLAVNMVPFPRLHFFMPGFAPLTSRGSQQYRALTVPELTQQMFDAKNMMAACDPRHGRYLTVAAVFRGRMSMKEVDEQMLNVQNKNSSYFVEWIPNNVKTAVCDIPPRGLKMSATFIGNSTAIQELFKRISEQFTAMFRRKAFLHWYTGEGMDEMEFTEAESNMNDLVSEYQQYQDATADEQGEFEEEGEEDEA

Row | SMILES | effect on tubulin polymerization in vitro [1] | accumulation of 8-oxo-dG [2] | cytotoxicity against cancer cell lines and KRAS-transformed fibroblast cells [3] | effect on enzymatic activity of ITPA [4] | thermal stabilization of cellular MTH1 [5]
1 | CC1(C)CC2CC(C)(CN2c2ncnc3[nH]cnc23)C1 (stereo not shown) [NPD7155] | did not affect tubulin polymerization | did not induce the significant accumulation | less potent cytotoxicity | did not affect | considerably stabilized
2 | Nc1nc(NCCc2ccccc2)c2nc[nH]c2n1 [NPD9948] | did not affect tubulin polymerization | did not induce the significant accumulation | less potent cytotoxicity | did not affect | considerably stabilized
